The text below walks through data of patent US20260184773A1, “THERAPEUTIC SINGLE DOMAIN ANTIBODY” (priority 2021, published 2026).

In general, EC50 refers to the concentration that produces a half-maximal response. A higher EC50 goes with weaker potency. The IC50 is the midpoint of a concentration-inhibition curve. A higher IC50 goes with weaker potency.

In assay [1] the test system is Zika in Vero. The format is cell-based, Zika virus.
In assay [2] the test system is TC83 in HeLa. The format is cell-based, Venezuelan Equine Encephalitis (TC83) virus.
For assay [3], the system named is PANC-1. As to the kind of experiment: MTT assay. For orientation: Tetrazolium assays rely on reduction of a dye to a coloured formazan, in cell work by metabolically active cells.
The target of assay [4] is T1, phosphorylated STAT3 (Homo sapiens, UniProt P40763).
T1 construct: endogenous in cells; host or cells: HeLa + IFN-γ (P-STAT3 lane); also PANC-1, DU145, PC-3 and 4T1 (mouse)
As to the kind of experiment: Immunoprecipitation from cell lysates, Western blot. It counts as binding. The settings on record: Dynabeads preloaded with SBT-100, 1 hour at 4° C. The source says:
It has been previously shown that SPT-100 can bind unphosphorylated STAT3. […] Bound proteins were separated by SDS-PAGE followed by Western blot analysis using STAT3 (79D7) rabbit mAb #4904.
(In general: A western blot detects proteins with antibodies after separation by electrophoresis.)

Assay [5] deals with MDA-MB-231. As to the kind of experiment: MTT assay.

T1 sequence (P40763 2-770 limits assumed): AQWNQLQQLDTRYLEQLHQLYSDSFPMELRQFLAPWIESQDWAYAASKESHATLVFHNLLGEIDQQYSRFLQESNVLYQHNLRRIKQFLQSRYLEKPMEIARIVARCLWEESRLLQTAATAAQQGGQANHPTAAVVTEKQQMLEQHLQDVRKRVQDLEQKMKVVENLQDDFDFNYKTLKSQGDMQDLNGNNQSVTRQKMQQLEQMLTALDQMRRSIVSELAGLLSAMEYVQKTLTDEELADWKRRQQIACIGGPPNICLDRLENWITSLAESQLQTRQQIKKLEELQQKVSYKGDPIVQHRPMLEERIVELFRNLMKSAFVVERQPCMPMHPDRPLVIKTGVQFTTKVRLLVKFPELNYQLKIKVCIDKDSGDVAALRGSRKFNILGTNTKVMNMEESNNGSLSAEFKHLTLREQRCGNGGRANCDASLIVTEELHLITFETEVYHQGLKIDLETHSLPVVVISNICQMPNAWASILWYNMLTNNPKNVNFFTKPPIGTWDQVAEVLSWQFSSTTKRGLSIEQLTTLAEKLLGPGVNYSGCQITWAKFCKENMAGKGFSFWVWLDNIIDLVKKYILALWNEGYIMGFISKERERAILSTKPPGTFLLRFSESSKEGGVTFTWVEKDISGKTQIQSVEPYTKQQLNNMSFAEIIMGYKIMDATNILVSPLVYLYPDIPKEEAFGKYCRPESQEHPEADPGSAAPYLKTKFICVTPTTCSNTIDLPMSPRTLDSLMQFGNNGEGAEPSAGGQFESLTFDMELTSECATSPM

Consider “SBT-100: 15 kDa camelid single domain antibody (VHH), SEQ ID NO: 1, binds both STAT3 and KRAS”, for which the figures for the EC50 in assay [1] and in assay [2] were 740 nM and 665 nM, respectively. The Comment result in assay [2] is recorded as “Inhibits Venezuelan Equine”. The figures for the concentration for half-maximal inhibition (IC50) in assay [3] (PANC-1) and in assay [5] (MDA-MB-231) were 380 nM and 1210 nM, respectively. Moreover, the “% Inhibition in 3 days with SBT-100 (SEQ ID NO: 1) ug/ml or 6.7 uM)” value in assay [3] (PANC-1, 3 days, 6.7 uM) is recorded as 85% (P < 0.001); in assay [5] (MDA-MB-231, 3 days, 6.7 uM), 89% (P < 0.001). In assay [4], the “Binding of phosphorylated STAT3 from cell lysates” value is on record as “binding”.
